This note sets out measurements from patent US9630947B2, “Therapeutic compounds and related methods of use” (OTSUKA PHARMACEUTICAL CO., LTD., priority 2009, dated 2017).

The target of the assay is T1, purified STEP46 enzyme (Homo sapiens, UniProt P54829).
T1 sequence (P54829 1-565): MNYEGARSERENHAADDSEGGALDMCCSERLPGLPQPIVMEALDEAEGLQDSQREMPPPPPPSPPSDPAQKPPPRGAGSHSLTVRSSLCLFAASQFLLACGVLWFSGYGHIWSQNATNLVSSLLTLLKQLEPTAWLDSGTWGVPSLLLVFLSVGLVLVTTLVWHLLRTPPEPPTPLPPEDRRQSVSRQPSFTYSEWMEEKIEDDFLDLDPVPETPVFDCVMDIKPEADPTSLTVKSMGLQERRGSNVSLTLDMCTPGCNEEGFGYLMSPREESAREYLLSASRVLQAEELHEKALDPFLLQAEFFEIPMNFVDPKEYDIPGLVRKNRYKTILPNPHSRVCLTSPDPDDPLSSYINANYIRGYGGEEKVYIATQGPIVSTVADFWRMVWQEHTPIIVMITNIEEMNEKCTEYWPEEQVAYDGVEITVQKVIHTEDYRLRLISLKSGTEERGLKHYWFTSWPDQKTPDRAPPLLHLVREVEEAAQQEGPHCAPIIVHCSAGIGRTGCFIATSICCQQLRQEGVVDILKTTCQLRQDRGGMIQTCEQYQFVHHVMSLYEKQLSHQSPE
The experiment in a line: STEP46 biochemical assay (DiFMUP fluorescence phosphatase assay). As to conditions: DiFMUP 10 μM, read-out: STEP IC50. In a few lines:
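Compounds preincubated 30 min at room temperature with purified STEP46 (1 ng/well) in 50 mM Hepes, 1 mM DTT, 0.02% Brij35, then 10 μM DiFMUP (final) added for 90 min at 27 °C; 2% DMSO, fluorescence at 360/460 nm. IC50 from four-parameter fit of % inhibition; activators reported as negative % inhibition at 25, 50 and 100 uM.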

pIC50: −log10 of the molar value.

Turning to `COc1ccc2nc(-c3cccnc3)nc(Nc3ccc4nonc4c3)c2c1` [Compound 332], the pIC50 was over 6.00.

The term pIC50 denotes −log10 of the IC50, conventionally taken in molar units.
